Earlier results in US9637731B2, “Heavy metal stabilization and methane inhibition during induced or naturally occurring reducing conditions in contaminated media” (Innovative Environmental Technologies, Inc., priority 2013, dated 2017).
pIC50: −log10 of the molar value.

Assays:
[1] = tested on: F420-dependent NADP oxidoreductase enzyme; details: 3D protein model
[2] = tested on: pure methanogenic bacteria

| Compound | affinity for the model protein compared to the natural ligand F420 [1] | methane formation (Methanobrevibacter) | concentration that completely inhibited growth (Methanobrevibacter; per ml of culture medium) [nmol/mL] | pIC50 (Methanobrevibacter; per ml of culture medium, read-out: concentration resulting in 50% inhibition of growth) | populations of the non-methanogens (non-methanogens) | growth and activity of pure methanogenic bacteria [2] | effect on cellulolytic bacteria (cellulolytic bacteria) |
| --- | --- | --- | --- | --- | --- | --- | --- |
| CC[C@H](C)C(=O)O[C@H]1CCC=C2C=C[C@H](C)[C@H](CC[C@@H]3C[C@@H](O)CC(=O)O3)[C@H]21 [compactin] | more affinity |  |  |  |  |  |  |
| CC[C@H](C)C(=O)O[C@H]1C[C@@H](C)C=C2C=C[C@H](C)[C@H](CC[C@@H]3C[C@@H](O)CC(=O)O3)[C@H]21 [lovastatin, Lovastatin] | more affinity | significantly inhibited | 10 | 5.40 | not affected | significantly reduced | without any negative effect |
